Experiments:
[1] = test system: BT-474; settings: 72 h
Method in brief: (§1)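 In this assay, breast cancer cell lines spent 72 h with compound at 5 concentrations in 10-fold steps over a compound-specific 10,000-fold range. The first readout was cell death by CellTox Green fluorescence, and the second was viability by CellTiter-Glo luminescence, each normalised per plate to 0.1 % DMSO and a positive kill control. EC50 came from the dose-response curves, censored at the top concentration.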

[2] = test system: BT-549; settings: 72 h
Method in brief: as §1

[3] = test system: CAL-120; settings: 72 h
Method in brief: as §1

[4] = test system: CAL-51; settings: 72 h
Method in brief: as §1

[5] = test system: CAL-85-1; settings: 72 h
Method in brief: as §1

[6] = test system: DU-4475; settings: 72 h
Method in brief: as §1

[7] = test system: HCC1937; settings: 72 h
Method in brief: as §1

[8] = test system: HDQ-P1; settings: 72 h
Method in brief: as §1

[9] = test system: Hs578T; settings: 72 h
Method in brief: as §1

[10] = test system: MDA-MB-231; settings: 72 h
Method in brief: as §1

[11] = test system: MDA-MB-436; settings: 72 h
Method in brief: as §1

[12] = test system: MDA-MB-468; settings: 72 h
Method in brief: as §1

[13] = test system: MFM-223; settings: 72 h
Method in brief: as §1

[14] = test system: SK-BR-3; settings: 72 h
Method in brief: as §1

[15] = test system: CAL-51; settings: 72 h; remark: listed apart in the source
Method in brief: (§2)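 Compound dissolved in 5 µl medium was placed in 384-well plates before 20 µl of breast cancer cell suspension was added, and the plates were incubated for 72 h. Cells then received 2.5 µl CellTiter-Blue for 2 h at 37 °C, and fluorescence was read at 560/590 nm. EC50 values come from percent-inhibition dose-response fits that were censored at the highest concentration, with plates normalised to vehicle and a positive kill control and rows with a zero drug sensitivity score excluded.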

[16] = test system: CAL-85-1; settings: 72 h; remark: listed apart in the source
Method in brief: as §2

[17] = test system: DU-4475; settings: 72 h; remark: listed apart in the source
Method in brief: as §2

[18] = test system: MDA-MB-453; settings: 72 h
Method in brief: as §2

[19] = test system: BT-549; settings: 72 h; remark: listed apart in the source
Method in brief: as §2

[20] = test system: CAL-120; settings: 72 h; remark: listed apart in the source
Method in brief: as §2

[21] = test system: HCC1143; settings: 72 h
Method in brief: as §2

[22] = test system: HCC1599; settings: 72 h
Method in brief: as §2

[23] = test system: HCC1937; settings: 72 h; remark: listed apart in the source
Method in brief: as §2

[24] = test system: Hs578T; settings: 72 h; remark: listed apart in the source
Method in brief: as §2

[25] = test system: MDA-MB-231; settings: 72 h; remark: listed apart in the source
Method in brief: as §2

[26] = test system: MDA-MB-436; settings: 72 h; remark: listed apart in the source
Method in brief: as §2

[27] = test system: MDA-MB-468; settings: 72 h; remark: listed apart in the source
Method in brief: as §2

[28] = test system: MFM-223; settings: 72 h; remark: listed apart in the source
Method in brief: as §2

[29] = test system: SK-BR-3; settings: 72 h; remark: listed apart in the source
Method in brief: as §2

[30] = test system: BT-549; experiment: drug sensitivity score (DSS), CellTox Green (DSS (AUC-based score)); higher = stronger drug effect (viability inhibition or cytotoxicity); extreme values may be limits of the assay; settings: incubation time: 72 h
Method in brief: (§3)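 Each compound occupied 5 concentrations in 10-fold steps over its own 10,000-fold range in 384-well plates, into which breast cancer cell lines were seeded as 20 µl suspension. Following 72 h of incubation, CellTox Green fluorescence (485/520 nm) was measured, and CellTiter-Glo luminescence was measured after 10 min at room temperature. Plates were individually normalised to 0.1 % DMSO and a positive kill control. From the area under the fitted dose-response curve, a drug sensitivity score was calculated.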

[31] = test system: CAL-85-1; experiment: as above; settings: incubation time: 72 h
Method in brief: as §3

[32] = test system: MDA-MB-231; experiment: as above; settings: incubation time: 72 h
Method in brief: as §3

[33] = test system: MFM-223; experiment: as above; settings: incubation time: 72 h
Method in brief: as §3

[34] = test system: HCC1599; settings: 72 h; remark: listed apart in the source
Method in brief: as §1

[35] = test system: MDA-MB-453; settings: 72 h; remark: listed apart in the source
Method in brief: as §1

[36] = test system: CAL-148; settings: 72 h
Method in brief: as §2

Row | SMILES | EC50, CellTiter-Glo [1] | EC50, CellTiter-Glo [2] | EC50, CellTiter-Glo [3] | EC50, CellTiter-Glo [4] | EC50, CellTiter-Glo [5] | EC50, CellTiter-Glo [6] | EC50, CellTiter-Glo [7] | EC50, CellTiter-Glo [8] | EC50, CellTiter-Glo [9] | EC50, CellTiter-Glo [10] | EC50, CellTiter-Glo [11] | EC50, CellTiter-Glo [12] | EC50, CellTiter-Glo [13] | EC50, CellTiter-Glo [14] | EC50, CellTiter-Blue viability [15] | EC50, CellTiter-Blue viability [16] | EC50, CellTiter-Blue viability [17] | EC50, CellTiter-Blue viability [18] | EC50, CellTiter-Blue viability [19] | EC50, CellTiter-Blue viability [20] | EC50, CellTiter-Blue viability [21] | EC50, CellTiter-Blue viability [22] | EC50, CellTiter-Blue viability [23] | EC50, CellTiter-Blue viability [24] | EC50, CellTiter-Blue viability [25] | EC50, CellTiter-Blue viability [26] | EC50, CellTiter-Blue viability [27] | EC50, CellTiter-Blue viability [28] | EC50, CellTiter-Blue viability [29] | drug sensitivity score [30] | drug sensitivity score [31] | drug sensitivity score [32] | drug sensitivity score [33] | EC50, CellTiter-Glo [34] | EC50, CellTiter-Glo [35] | EC50, CellTiter-Blue viability [36]
1 | CO[C@@H]1[C@H](N(C)C(=O)c2ccccc2)C[C@H]2O[C@]1(C)n1c3ccccc3c3c4c(c5c6ccccc6n2c5c31)C(=O)NC4 [Midostaurin] | 275 nM | 585 nM | 275 nM | 308 nM | 831 nM | 562 nM | 547 nM | 465 nM | 254 nM | 265 nM | 690 nM | 229 nM | 595 nM | 634 nM | 182 nM | 314 nM | 451 nM | 92.3 nM | 1490 nM | 591 nM | 822 nM | 617 nM | 237 nM | 299 nM | 477 nM | 204 nM | 490 nM | 708 nM | 1240 nM | 12.6 | 0 | 7.87 | 0 | – | – | –
2 | CCNC(=O)c1noc(-c2cc(C(C)C)c(O)cc2O)c1-c1ccc(CN2CCOCC2)cc1 [NVP-AUY922] | 42.4 nM | 11.7 nM | 37.2 nM | 34 nM | 38.8 nM | 33.1 nM | 28 nM | 14.1 nM | 41.8 nM | 40.4 nM | 5.43 nM | 4.55 nM | 10.2 nM | 7.09 nM | 22.2 nM | 18.8 nM | 15.9 nM | 15.3 nM | 5.61 nM | 7.81 nM | 32.2 nM | 45.2 nM | 0.76 nM | 3.74 nM | 6.7 nM | 10.2 nM | 7.89 nM | 5.15 nM | 6.13 nM | 0 | 9.49 | 12.6 | 0 | 37.1 nM | 42.6 nM | 19.4 nM
3 | CC1(C)CCC(c2ccc(Cl)cc2)=C(CN2CCN(c3ccc(C(=O)NS(=O)(=O)c4ccc(N[C@H](CCN5CCOCC5)CSc5ccccc5)c(S(=O)(=O)C(F)(F)F)c4)cc3)CC2)C1 [Navitoclax] | 1680 nM | > 10000 nM | 3900 nM | 1260 nM | – | 2990 nM | > 10000 nM | 392 nM | – | 774 nM | – | 86.4 nM | > 10000 nM | – | – | – | 286 nM | – | 373 nM | 235 nM | – | 166 nM | – | – | 614 nM | – | 109 nM | 101 nM | – | 0 | 3.45 | 21.5 | 1.23 | – | 6680 nM | 129 nM
4 | O=[N+]([O-])c1ccc2c(c1)S(=O)(=O)C=C2 [Stattic] | 7660 nM | 1010 nM | 11000 nM | 1540 nM | 1630 nM | 16300 nM | 2460 nM | 12700 nM | 3130 nM | 2760 nM | 7930 nM | 446 nM | 2730 nM | 8890 nM | – | – | – | – | – | – | – | – | – | – | – | – | – | – | – | 19.8 | 19.7 | 11.6 | 16.3 | 10600 nM | 3720 nM | –
5 | CC(C)(C)c1nc(-c2cccc(NS(=O)(=O)c3c(F)cccc3F)c2F)c(-c2ccnc(N)n2)s1 [Dabrafenib] | – | – | 56.3 nM | – | – | 60 nM | – | – | > 2500 nM | – | – | – | – | – | – | – | – | – | – | – | – | – | – | – | – | – | – | – | – | 0 | 0 | 0 | 0 | – | – | –
6 | Nc1ccn([C@@H]2O[C@H](CO)[C@@H](O)C2(F)F)c(=O)n1 [Gemcitabine] | 32.1 nM | 5.01 nM | 87.3 nM | 12.5 nM | 18.5 nM | 20.7 nM | – | – | 26.9 nM | – | 9.55 nM | 6.86 nM | – | 12.8 nM | 22 nM | 87.4 nM | 91.6 nM | 103 nM | 19.1 nM | 9.03 nM | 9.03 nM | 233 nM | 20.5 nM | 9.36 nM | 4.41 nM | 22.2 nM | 13.5 nM | 673 nM | 11.8 nM | 0 | 4.04 | 0 | 0 | 18.4 nM | 47.6 nM | 18.8 nM
7 | Cn1cc(C2=C(c3cn(C4CCN(Cc5ccccn5)CC4)c4ccccc34)C(=O)NC2=O)c2ccccc21 [Enzastaurin] | – | – | – | – | – | – | – | – | – | – | – | – | – | – | – | – | – | 408 nM | 857 nM | – | 418 nM | – | 5370 nM | 873 nM | – | 129 nM | – | 642 nM | 667 nM | 0 | 0 | 0 | 0 | – | – | 24 nM
8 | CC(C)(C)NC(=O)[C@H]1CC[C@H]2[C@@H]3CC[C@H]4NC(=O)C=C[C@]4(C)[C@H]3CC[C@]12C [Finasteride] | – | – | – | – | – | – | – | – | – | – | – | – | – | – | 8160 nM | – | 5420 nM | 7430 nM | – | – | – | – | – | – | – | – | – | 8260 nM | – | 0 | 0 | 0 | 3.14 | – | – | 8190 nM
9 | COc1cc(Nc2c(C#N)cnc3cc(OCCCN4CCN(C)CC4)c(OC)cc23)c(Cl)cc1Cl [Bosutinib] | 2480 nM | 3160 nM | 1450 nM | 1400 nM | 1580 nM | – | 2100 nM | 972 nM | 9760 nM | 1810 nM | 2170 nM | 1920 nM | 1910 nM | 3120 nM | 5020 nM | 3180 nM | 5670 nM | 2670 nM | 3360 nM | 1960 nM | 1440 nM | 2100 nM | 2670 nM | 4520 nM | 2410 nM | 3110 nM | 3180 nM | 5250 nM | 2130 nM | 1.47 | 8.13 | 7.99 | 0 | 3160 nM | 3220 nM | 1860 nM

From the supplement of paper PMC4862054
